Reference: ChEMBL document CHEMBL4196089, “Design, synthesis, biological evaluation and in vivo testing of dual phosphodiesterase 5 (PDE5) and histone deacetylase 6 (HDAC6)-selective inhibitors for the treatment of Alzheimer's disease” (Eur J Med Chem, 2018)
pIC50: −log10 of the molar value.

Assays:
[1] = molecular target: T1, Histone deacetylase 2 (Homo sapiens, UniProt Q92769); experiment: Inhibition of full length human recombinant C-terminal His-tagged HDAC2 expressed in baculovirus infected sf9 cells using fluorogenic HDAC substrate 3 after 30 mins by fluorescence assay
T1 sequence (Q92769 whole entry): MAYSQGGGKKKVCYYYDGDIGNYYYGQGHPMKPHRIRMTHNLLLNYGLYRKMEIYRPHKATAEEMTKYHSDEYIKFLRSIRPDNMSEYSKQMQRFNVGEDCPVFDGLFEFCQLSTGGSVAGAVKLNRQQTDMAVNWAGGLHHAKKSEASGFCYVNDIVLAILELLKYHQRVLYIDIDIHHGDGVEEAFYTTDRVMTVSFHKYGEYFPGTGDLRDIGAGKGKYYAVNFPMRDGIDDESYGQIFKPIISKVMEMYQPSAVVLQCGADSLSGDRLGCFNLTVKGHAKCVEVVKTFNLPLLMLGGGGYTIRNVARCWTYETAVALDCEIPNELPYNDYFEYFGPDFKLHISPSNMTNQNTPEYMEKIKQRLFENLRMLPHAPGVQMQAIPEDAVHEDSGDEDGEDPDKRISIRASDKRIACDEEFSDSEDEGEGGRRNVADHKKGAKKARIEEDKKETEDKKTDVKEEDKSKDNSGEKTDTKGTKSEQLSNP

[2] = molecular target: T2, Histone deacetylase 1 (Homo sapiens, UniProt Q13547); experiment: Inhibition of full length human recombinant C-terminal FLAG/His-tagged HDAC1 expressed in baculovirus infected sf9 cells using fluorogenic HDAC substrate 3 after 30 mins by fluorescence assay
T2 sequence (Q13547 whole entry): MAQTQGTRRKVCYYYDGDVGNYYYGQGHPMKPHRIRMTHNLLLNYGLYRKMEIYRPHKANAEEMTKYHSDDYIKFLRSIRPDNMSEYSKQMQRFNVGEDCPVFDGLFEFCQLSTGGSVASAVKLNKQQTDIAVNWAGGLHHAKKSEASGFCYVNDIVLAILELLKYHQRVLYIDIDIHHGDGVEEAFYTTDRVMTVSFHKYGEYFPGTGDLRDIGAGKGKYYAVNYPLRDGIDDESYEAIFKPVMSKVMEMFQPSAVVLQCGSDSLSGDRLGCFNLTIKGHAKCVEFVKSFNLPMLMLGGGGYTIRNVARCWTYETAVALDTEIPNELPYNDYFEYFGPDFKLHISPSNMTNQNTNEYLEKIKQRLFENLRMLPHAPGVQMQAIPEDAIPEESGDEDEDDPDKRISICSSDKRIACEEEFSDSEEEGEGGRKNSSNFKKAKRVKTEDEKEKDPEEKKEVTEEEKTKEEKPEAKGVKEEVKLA

[3] = molecular target: T3, cGMP-specific 3',5'-cyclic phosphodiesterase (Homo sapiens, UniProt O76074); experiment: Inhibition of full length human recombinant N-terminal GST-tagged PDE5A1 expressed in baculovirus infected sf9 cells using cGMP as substrate after 30 mins by fluorescence assay
[4] = molecular target: T4, Protein deacetylase HDAC6 (Homo sapiens, UniProt Q9UBN7); experiment: Inhibition of full length human recombinant N-terminal GST-tagged HDAC6 expressed in baculovirus infected sf9 cells using fluorogenic HDAC substrate 3 after 30 mins by fluorescence assay
T4 sequence (Q9UBN7 whole entry): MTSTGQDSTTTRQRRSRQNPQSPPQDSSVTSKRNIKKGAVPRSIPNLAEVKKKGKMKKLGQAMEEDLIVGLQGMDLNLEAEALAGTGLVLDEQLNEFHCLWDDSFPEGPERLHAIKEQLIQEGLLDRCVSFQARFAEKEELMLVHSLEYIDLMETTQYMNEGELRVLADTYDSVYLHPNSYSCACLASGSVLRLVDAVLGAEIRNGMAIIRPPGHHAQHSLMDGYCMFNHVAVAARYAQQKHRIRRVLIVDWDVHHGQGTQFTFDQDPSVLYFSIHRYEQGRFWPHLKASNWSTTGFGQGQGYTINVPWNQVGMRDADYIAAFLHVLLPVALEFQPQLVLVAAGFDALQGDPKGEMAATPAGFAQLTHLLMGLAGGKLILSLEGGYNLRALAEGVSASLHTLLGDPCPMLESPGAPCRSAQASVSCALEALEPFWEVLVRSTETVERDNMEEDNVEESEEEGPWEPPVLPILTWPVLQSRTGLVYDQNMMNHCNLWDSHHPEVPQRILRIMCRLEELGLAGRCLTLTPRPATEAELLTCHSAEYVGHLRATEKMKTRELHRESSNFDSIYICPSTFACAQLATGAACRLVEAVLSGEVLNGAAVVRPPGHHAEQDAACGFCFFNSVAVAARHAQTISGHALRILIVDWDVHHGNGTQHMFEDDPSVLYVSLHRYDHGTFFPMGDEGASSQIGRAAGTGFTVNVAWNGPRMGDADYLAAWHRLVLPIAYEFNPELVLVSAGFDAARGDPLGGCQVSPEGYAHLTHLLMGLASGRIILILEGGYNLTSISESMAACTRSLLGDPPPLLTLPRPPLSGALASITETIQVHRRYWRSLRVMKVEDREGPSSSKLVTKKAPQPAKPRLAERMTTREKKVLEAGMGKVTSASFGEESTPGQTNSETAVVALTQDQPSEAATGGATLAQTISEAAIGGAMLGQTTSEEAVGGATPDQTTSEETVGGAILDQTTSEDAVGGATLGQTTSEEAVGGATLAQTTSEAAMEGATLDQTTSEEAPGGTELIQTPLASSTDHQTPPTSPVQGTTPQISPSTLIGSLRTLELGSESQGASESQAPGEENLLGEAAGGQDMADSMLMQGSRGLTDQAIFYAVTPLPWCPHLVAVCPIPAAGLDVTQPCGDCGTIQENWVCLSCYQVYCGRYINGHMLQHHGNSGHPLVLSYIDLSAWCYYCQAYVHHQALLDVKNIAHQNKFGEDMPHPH

[5] = molecular target: Histone deacetylase 3/Nuclear receptor corepressor 2 (HDAC3/NCoR2) (Homo sapiens, UniProt O15379); experiment: Inhibition of full length human recombinant C-terminal His-tagged HDAC3/N-terminal GST-tagged NCOR2 (95 to 489 residues) expressed in baculovirus infected sf9 cells using fluorogenic HDAC substrate 3 after 30 mins by fluorescence assay
Sequence of Histone deacetylase 3/Nuclear receptor corepressor 2 (HDAC3/NCoR2) (O15379 whole entry, the tested form may be a part): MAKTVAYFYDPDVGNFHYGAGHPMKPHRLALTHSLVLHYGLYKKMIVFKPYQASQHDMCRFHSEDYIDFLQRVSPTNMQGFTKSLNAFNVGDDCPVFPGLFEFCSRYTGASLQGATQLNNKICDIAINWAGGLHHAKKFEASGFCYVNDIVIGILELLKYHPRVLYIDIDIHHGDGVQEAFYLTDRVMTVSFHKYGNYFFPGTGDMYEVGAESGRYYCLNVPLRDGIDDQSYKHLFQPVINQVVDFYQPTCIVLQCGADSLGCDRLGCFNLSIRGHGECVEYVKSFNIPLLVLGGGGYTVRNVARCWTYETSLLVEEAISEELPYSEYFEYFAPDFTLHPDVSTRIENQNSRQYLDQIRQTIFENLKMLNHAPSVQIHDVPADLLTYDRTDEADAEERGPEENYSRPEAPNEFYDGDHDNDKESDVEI
Sequence of Histone deacetylase 3/Nuclear receptor corepressor 2 (HDAC3/NCoR2) (Q9Y618 whole entry, further chain, the tested form may be a part): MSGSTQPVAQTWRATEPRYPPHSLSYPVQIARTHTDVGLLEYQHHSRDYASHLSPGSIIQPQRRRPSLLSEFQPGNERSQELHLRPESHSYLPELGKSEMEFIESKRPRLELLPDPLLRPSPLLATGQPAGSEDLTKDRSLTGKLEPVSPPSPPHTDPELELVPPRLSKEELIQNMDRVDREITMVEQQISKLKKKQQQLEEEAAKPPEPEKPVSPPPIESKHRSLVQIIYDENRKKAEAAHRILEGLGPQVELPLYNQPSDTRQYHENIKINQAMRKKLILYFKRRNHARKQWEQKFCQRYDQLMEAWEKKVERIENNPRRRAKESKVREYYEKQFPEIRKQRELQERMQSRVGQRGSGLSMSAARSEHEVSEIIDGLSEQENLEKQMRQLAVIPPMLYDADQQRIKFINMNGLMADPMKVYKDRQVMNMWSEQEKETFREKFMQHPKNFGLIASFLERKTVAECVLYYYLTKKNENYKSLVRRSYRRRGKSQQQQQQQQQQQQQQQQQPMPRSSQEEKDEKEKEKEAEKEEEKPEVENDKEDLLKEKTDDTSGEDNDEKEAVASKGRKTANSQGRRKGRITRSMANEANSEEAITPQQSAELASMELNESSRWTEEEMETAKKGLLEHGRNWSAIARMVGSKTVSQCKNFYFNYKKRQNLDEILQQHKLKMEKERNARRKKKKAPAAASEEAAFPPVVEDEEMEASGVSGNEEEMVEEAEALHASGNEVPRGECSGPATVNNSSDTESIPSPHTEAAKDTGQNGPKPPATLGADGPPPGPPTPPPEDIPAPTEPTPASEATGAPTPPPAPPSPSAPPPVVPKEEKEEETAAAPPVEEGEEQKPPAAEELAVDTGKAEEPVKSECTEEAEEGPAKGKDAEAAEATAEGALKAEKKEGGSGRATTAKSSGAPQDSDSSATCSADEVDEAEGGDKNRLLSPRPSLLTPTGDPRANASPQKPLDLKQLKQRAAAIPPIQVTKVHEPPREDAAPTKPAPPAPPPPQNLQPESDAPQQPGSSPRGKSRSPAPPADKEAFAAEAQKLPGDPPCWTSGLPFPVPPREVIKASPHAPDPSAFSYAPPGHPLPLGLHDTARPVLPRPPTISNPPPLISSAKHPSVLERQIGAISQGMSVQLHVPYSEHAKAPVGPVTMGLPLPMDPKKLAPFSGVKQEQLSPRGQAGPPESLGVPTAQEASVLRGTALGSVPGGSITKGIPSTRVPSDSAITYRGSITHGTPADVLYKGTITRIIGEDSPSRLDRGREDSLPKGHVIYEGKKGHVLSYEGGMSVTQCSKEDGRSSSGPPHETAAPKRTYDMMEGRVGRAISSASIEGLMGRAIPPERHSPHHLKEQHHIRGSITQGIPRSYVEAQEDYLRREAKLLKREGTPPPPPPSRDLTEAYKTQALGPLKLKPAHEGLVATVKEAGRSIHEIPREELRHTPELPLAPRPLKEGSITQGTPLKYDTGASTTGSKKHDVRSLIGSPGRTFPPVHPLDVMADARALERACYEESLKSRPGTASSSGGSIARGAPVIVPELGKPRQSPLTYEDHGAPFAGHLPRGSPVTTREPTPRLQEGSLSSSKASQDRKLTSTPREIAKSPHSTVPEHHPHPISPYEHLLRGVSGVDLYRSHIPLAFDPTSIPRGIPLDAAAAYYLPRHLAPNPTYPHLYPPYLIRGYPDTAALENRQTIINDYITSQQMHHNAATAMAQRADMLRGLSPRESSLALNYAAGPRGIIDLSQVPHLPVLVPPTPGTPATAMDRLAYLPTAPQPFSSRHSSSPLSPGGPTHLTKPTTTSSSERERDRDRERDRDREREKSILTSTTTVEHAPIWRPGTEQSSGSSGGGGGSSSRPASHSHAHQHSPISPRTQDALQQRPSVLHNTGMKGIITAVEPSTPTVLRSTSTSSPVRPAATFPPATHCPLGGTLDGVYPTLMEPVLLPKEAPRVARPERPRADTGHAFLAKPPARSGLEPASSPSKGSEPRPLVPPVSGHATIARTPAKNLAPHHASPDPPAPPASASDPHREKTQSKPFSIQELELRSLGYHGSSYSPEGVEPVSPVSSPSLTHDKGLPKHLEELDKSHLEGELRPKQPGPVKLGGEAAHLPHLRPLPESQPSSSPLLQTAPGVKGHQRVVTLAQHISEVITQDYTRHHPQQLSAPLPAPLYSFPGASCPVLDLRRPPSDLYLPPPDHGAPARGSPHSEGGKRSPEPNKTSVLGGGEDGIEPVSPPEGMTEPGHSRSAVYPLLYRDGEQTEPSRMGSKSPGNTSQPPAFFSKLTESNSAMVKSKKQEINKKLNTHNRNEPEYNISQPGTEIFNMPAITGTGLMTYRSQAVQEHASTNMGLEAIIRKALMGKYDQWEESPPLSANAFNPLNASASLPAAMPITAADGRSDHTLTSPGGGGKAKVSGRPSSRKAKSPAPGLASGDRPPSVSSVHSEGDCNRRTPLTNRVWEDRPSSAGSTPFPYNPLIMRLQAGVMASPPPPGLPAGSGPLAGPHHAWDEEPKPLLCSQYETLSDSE

[6] = Cytotoxicity against human THLE2 cells after 72 hrs by vialight cell proliferation assay; assay type: cell-based, THLE-2; conditions: read-out: LC50
[7] = Effective permeability of the compound at 50 uM after 18 hrs by UV spectroscopy based PAMPA; assay type: ADME; conditions: read-out: Peff
[8] = cells; conditions: Homo sapiens, SH-SY5Y, 2 h, read-out: FC
[9] = cells; conditions: Homo sapiens, SH-SY5Y, 2 h, read-out: FC; remark: listed apart in the source
[10] = cells; conditions: Homo sapiens, SH-SY5Y, 2 h, read-out: FC; remark: listed apart in the source
[11] = molecular target: Histone deacetylase 3 (Homo sapiens, UniProt O15379); experiment: Inhibition of HDAC3 (unknown origin)
Sequence of Histone deacetylase 3 (O15379 whole entry): as the sequence (O15379 whole entry, the tested form may be a part) above

[12] = molecular target: T1, Histone deacetylase 2; assay type: ADME
[13] = molecular target: T3, cGMP-specific 3',5'-cyclic phosphodiesterase; experiment: Inhibition of PDE5A (unknown origin)
[14] = molecular target: T2, Histone deacetylase 1; experiment: Inhibition of HDAC1 (unknown origin)
[15] = molecular target: T4, Protein deacetylase HDAC6; experiment: Inhibition of HDAC6 (unknown origin)

Row | Structure (SMILES) | pIC50 [1] | pIC50 [2] | pIC50 [3] | pIC50 [4] | also measured
1 | CCCc1nn(C)c2c(=O)[nH]c(-c3cc(Cc4ccc(C(=O)NO)c(OC)c4)ccc3OCC)nc12 | < 4.70 | < 4.70 | 6.84 | < 4.70 | –
2 | CCCc1nn(C)c2c(=O)[nH]c(-c3cc(C(=O)c4ccc(C(=O)NO)s4)ccc3OCC)nc12 | 6.10 | 6.56 | 8.52 | 6.72 | –
3 | CCCc1nn(C)c2c(=O)[nH]c(-c3cc(C4CCC(C(=O)NO)CC4)ccc3OCC)nc12 (stereo unspecified) | < 4.70 | 5.08 | 6.84 | 5.51 | –
4 | CCCc1nn(C)c2c(=O)[nH]c(-c3cc(Cc4ccc(CC(=O)NO)cc4)ccc3OCC)nc12 | < 4.70 | < 4.70 | 7.82 | 6.79 | pIC50 [5]: < 4.70; CC50 at 72 h [6]: 5490 nM; Papp at 18 h, 50 µM [7]: 2.94 ×10⁻⁶ cm/s
5 | CCCc1nn(C)c2c(=O)[nH]c(-c3cc(-c4ccc(C(=O)NO)s4)ccc3OCC)nc12 | 5.32 | 6.41 | 8.15 | 7.43 | fold induction at 1 µM [8]: 2.7; fold induction at 0.1 µM [9]: 1.1; CC50 at 72 h [6]: 2180 nM; fold induction at 0.5 µM [10]: 2.5; Papp at 18 h, 50 µM [7]: 2.82 ×10⁻⁶ cm/s
6 | CCCc1nn(C)c2c(=O)[nH]c(-c3cc(Cc4ccc(C(=O)NO)o4)ccc3OCC)nc12 | 4.76 | 5.65 | 8.52 | 6.77 | pIC50 [5]: < 4.70
7 | CCCc1nn(C)c2c(=O)[nH]c(-c3cc(C4=CCC(C(=O)NO)CC4)ccc3OCC)nc12 (stereo unspecified) | < 4.70 | 5.54 | 7.57 | 6.47 | –
8 | CCCc1nn(C)c2c(=O)[nH]c(-c3cc(C(OC)c4ccc(C(=O)NO)cc4)ccc3OCC)nc12 (stereo unspecified) | 5.95 | 6.45 | 7.70 | 7.11 | –
9 | CCCc1nn(C)c2c(=O)[nH]c(-c3cc([C@H]4CC[C@@H](C(=O)NO)CC4)ccc3OCC)nc12 | < 4.70 | 6.03 | 7.28 | 7.32 | fold induction at 1 µM [8]: 5.4; fold induction at 0.1 µM [9]: 0.7; CC50 at 72 h [6]: 16000 nM; fold induction at 0.5 µM [10]: 1.8; Papp at 18 h, 50 µM [7]: 1.68 ×10⁻⁶ cm/s
10 | CCCc1nc(C)c2c(=O)[nH]c(-c3cc(CC4CC(C(=O)NO)C4)ccc3OCC)nn12 (stereo unspecified) | – | – | – | – | pIC50 [11]: 6.07; pIC50 [12]: 5.90; pIC50 [13]: 8.30; pIC50 [14]: 6.54; pIC50 [15]: 6.96
11 | CCCc1nn(C)c2c(=O)[nH]c(-c3cc(N4CCC(C(=O)NO)CC4)ccc3OCC)nc12 | < 4.70 | 5.14 | 7.44 | 5.93 | –
12 | CCCc1nn(C)c2c(=O)[nH]c(-c3cc(C4=CCC(CC(=O)NO)CC4)ccc3OCC)nc12 (stereo unspecified) | < 4.70 | 5.74 | 7.85 | 6.66 | –
13 | CCCc1nn(C)c2c(=O)[nH]c(-c3cc(Cc4ccc(C(=O)NO)cc4OC)ccc3OCC)nc12 | < 4.70 | < 4.70 | 7.33 | < 4.70 | –
14 | CCCc1nn(C)c2c(=O)[nH]c(-c3cc(OCc4ccc(C(=O)NO)cc4)ccc3OCC)nc12 | 4.94 | 5.97 | 7.10 | 7.48 | –
